Test [1] addresses T1, μ opioid receptor (Homo sapiens, UniProt P35372). The test can be described thus: μ opioid receptor agonism, G protein signaling pathway. Type of test: cell-based. To be noted: for Biased Agonism Selectivity Coefficient k: G protein pathway relative to β arrestin (ratio of the two EC50).
Test [2] has as its target T1, μ opioid receptor. The test can be described thus: μ opioid receptor agonism, β arrestin pathway. Type of test: cell-based.
The mark [3] stands for this setting: μ opioid receptor, G protein pathway, read-out: EC50 (G protein).
The mark [4] stands for this setting: μ opioid receptor, β arrestin pathway, read-out: EC50 (β arrestin).

In general, EC50 refers to the concentration at which the effect is half-maximal.

T1 sequence (P35372 whole entry, species assumed): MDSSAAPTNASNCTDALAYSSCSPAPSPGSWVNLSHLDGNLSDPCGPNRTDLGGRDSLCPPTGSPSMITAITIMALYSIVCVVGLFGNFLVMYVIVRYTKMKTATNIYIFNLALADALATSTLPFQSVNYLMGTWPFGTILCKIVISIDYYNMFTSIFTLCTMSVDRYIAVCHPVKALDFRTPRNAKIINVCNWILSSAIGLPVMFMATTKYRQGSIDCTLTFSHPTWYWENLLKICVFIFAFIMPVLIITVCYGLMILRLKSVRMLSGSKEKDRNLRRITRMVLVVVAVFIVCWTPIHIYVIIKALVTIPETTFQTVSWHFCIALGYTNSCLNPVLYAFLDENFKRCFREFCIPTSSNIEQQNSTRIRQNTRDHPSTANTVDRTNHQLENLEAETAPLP

As for `CCCNC(=O)c1cccc(CNCc2cn(-c3ccccc3)nc2-c2ccncc2)c1` [Compound 1], the EC50 in test [1] came to 704 nM; in test [2], 18.8 µM. In addition, the “Biased Agonism Selectivity Coefficient k” value in test [1] was found to be 26.7.

On to `CCCNC(=O)c1cccc(CNCc2cn(-c3ccccc3)nc2-c2ccccc2)c1` [Compound 2], for which the figures for the EC50 in test [1] and in test [2] were 146 nM and 5.06 µM, respectively. For the same compound, the “Biased Agonism Selectivity Coefficient k” value in test [1] worked out at 34.8.

For the compound `c1ccc(-n2cc(CNCc3ccc4occc4c3)c(-c3ccncc3)n2)cc1` [Compound 3], in test [1], the “Biased Agonism Selectivity Coefficient k” value is 157.9. For the same compound, the figures for the EC50 in test [1] (setting [3]) and in test [2] (setting [4]) were 1.24 nM and 0.195 µM, respectively.

Take `c1ccc(-c2nn(-c3ccccc3)cc2CNCc2ccc3occc3c2)cc1` [Compound 4]: in test [1], the EC50 was 139 nM and the “Biased Agonism Selectivity Coefficient k” value turned out to be 32.8. The EC50 in test [2] was found to be 4.57 µM.

The compound `Cc1cc(C)n2c(CNCc3cn(-c4ccccc4)nc3-c3ccccc3)cnc2n1` [Compound 6] gave an EC50 in test [1] of 2190 nM.

Take `CCCOC(=O)c1cccc(CNCc2cn(-c3ccccc3)nc2-c2ccccc2)c1` [Compound 8]: in test [1], the EC50 turned out to be 6450 nM and the “Biased Agonism Selectivity Coefficient k” value was found to be 11.3. Also, a half-maximal response in test [2] (EC50) required 0.569 µM.

On to `CCCOC(=O)c1cccc(CNCc2cn(-c3ccccc3)nc2-c2ccncc2)c1` [Compound 9], for which the values for the EC50 in test [1] and in test [2] were 22200 nM and 1.63 µM, respectively. Moreover, the “Biased Agonism Selectivity Coefficient k” value in test [1] stood at 13.6.

In the case of `CCOC(=O)c1cccc(CNCc2cn(-c3ccccc3)nc2-c2ccccc2)c1` [Compound 10], the concentration giving a half-maximal response (EC50) in test [1] is 13900 nM; in test [2], 1.83 µM. The “Biased Agonism Selectivity Coefficient k” value in test [1] amounted to 7.6.

`CCOC(=O)c1cccc(CNCc2cn(-c3ccccc3)nc2-c2ccncc2)c1` [Compound 11]: in test [1], the EC50 is 7220 nM and the “Biased Agonism Selectivity Coefficient k” value came out at 9.3. Also, in test [2], the response was half-maximal at 67.5 µM (EC50).

As for `c1ccc(-n2cc(CNCc3ccc4c(c3)OCO4)c(-c3ccncc3)n2)cc1` [Compound 12], in test [1], the “Biased Agonism Selectivity Coefficient k” value was determined as 2228.6. The EC50 in test [1] (setting [3]) was 10.5 nM; in test [2] (setting [4]), 23.4 µM.

`c1ccc(-n2cc(CNCc3ccc4c(c3)CCO4)c(-c3ccncc3)n2)cc1` [Compound 13]: in test [1], the “Biased Agonism Selectivity Coefficient k” value is recorded as 940.9. For the same compound, the EC50 in test [1] (setting [3]) came to 6.26 nM; in test [2] (setting [4]), 5.89 µM.

In test [1], `CC(C)Oc1ccc(CNCc2cn(-c3ccccc3)nc2-c2ccncc2)cc1` [Compound 14] gave an EC50 of 521 nM.

In test [1], `c1ccc(-n2cc(CNCCn3cccn3)c(-c3ccncc3)n2)cc1` [Compound 15] gave an EC50 of 3100 nM.

Source of the values: patent US20260008754A1, “N-SUBSTITUTED DERIVATIVES OF L-(L-PHENYL-3-ARYL)-LFF-PYRAZOL-4-YL)METHANAININE, METHOD FOR THEIR PRODUCTION AND THEIR APPLICATIONS” (priority 2022, published 2026).
